Data published in a melting point compilation (Tetko et al.; mined from patent text by program, amines drawn as free bases though some values may be those of a salt).

Row | Compound | melting point [°C]
1 | Cc1nc2scc(C)n2c(=O)c1CCN1CCC(Nc2nc3ccccc3n2Cc2ccc(F)cc2)CC1 | 141
2 | COc1ccc(C2=C(OC(C)=O)C(=O)Nc3ccc(Cl)cc3S2)cc1 | 236 to 238
3 | CCOCc1cc2cc(Br)ccc2oc1=Nc1ccc(F)cc1 | 153 to 154
4 | O=Cc1nn2c3c(cccc13)CCC2 | 119 to 120
5 | Cn1cc(C2CCC(=O)C2)c2cc(C#N)ccc21 (configuration not stated) | 167 to 168
6 | O=c1nc(-c2ccccc2)c2ccsc2[nH]1 | 247 to 249
7 | Clc1ccc(-c2nnc(CSCCOc3ccccc3)o2)cn1 | 113 to 115
8 | COc1cccc2c1CCC1CCC(=O)N(C)CC21 (configuration not stated) | 123 to 124
9 | Nc1nc2c(ncn2COC(CC(=O)OC23CC4CC(CC(C4)C2)C3)CC(=O)OC23CC4CC(CC(C4)C2)C3)c(=O)[nH]1 (configuration not stated) | 283 to 285
10 | S=c1nc(-c2ccc(Cl)c(Cl)c2)[nH]n1Cc1ccccc1 | 227 to 228
11 | NC(=O)Cc1ccc2ccn(C3CCN(CCc4ccc(F)cc4)CC3)c2c1 | 112 to 113
12 | O=C1CCN(Cc2ccccc2O)CC1C(c1ccccc1)c1ccccc1 (configuration not stated) | 109 to 110
13 | CCc1ccc(-c2c3ccccc3c(-c3ccc(CC)cc3)c3cc(Cl)ccc23)cc1 | 214 to 216
14 | Cc1oc(-c2ccccc2)nc1COc1ccc(Cn2cc(C(=O)O)c(C(C)C)n2)cc1 | 194 to 195
15 | C#Cc1ccc(C(=O)Cl)cc1 | 32 to 34
16 | COc1ccc(C(=S)Nc2ccccc2OC)cc1 | 84.5 to 86.5
17 | CC(SC(=O)c1ccccc1)C(=O)N1c2ccccc2CCC1C(=O)O (configuration not stated) | 157 to 159
18 | COc1ccccc1-c1cccc(-n2cnc3cc(C4=NCCN4)ccc32)c1 | 221 to 224
19 | COc1ccc2c(c1)C(c1ccc(OCCN(C(C)C)C(C)C)cc1)c1c-2ccc2ccccc12 (configuration not stated) | 106 to 115
20 | O=C(O)Cc1ccc(C(=O)c2ccccc2)s1 | 144
21 | Cc1nc(NC(=O)c2cnn3c(C(F)(F)F)cc(-c4ccc(C(F)(F)F)c(Cl)c4)nc23)sc1S(=O)(=O)NC(C)(C)CO | 274
22 | O=C(O)CCCc1ccc(C(Cc2ccccc2)NS(=O)(=O)c2ccc(Cl)cc2)cc1 (configuration not stated) | 152 to 153
23 | CCN(C)C(=O)c1cnn(C)c1C(=O)Nc1ccn2nc(N3CCOCC3)nc2c1 | 201 to 203
24 | CC(=O)NC(=O)OC[C@]1(C)S[C@@H]2[C@H](NC(=O)COc3ccccc3)C(=O)N2[C@H]1C(=O)OCc1ccc([N+](=O)[O-])cc1 | 83 to 85
25 | Cc1cccc2c1nc(-c1ccccc1[N+](=O)[O-])n2CC(C)O (configuration not stated) | 171 to 172

Row | Compound | melting point [°C]
26 | FC(F)(F)c1cc(N=NNc2cc(C(F)(F)F)cc(C(F)(F)F)c2)cc(C(F)(F)F)c1 | 137 to 138
27 | CCN(CC)C(=O)Nc1ccc(S(=O)(=O)N2C(=O)C(NCCCC(N)=O)(c3ccccc3Cl)c3cc(Cl)ccc32)cc1 (configuration not stated) | 192
28 | Cc1ccc(-c2ccc3c(c2)C=C(C(=O)Nc2ccc(CP4(=O)OCCCO4)cc2)CCO3)cc1 | 268 to 269
29 | CC(=O)Nc1cc(-c2ccncn2)c[nH]c1=O | > 250
30 | Cc1cccc(-c2nc3ccc(Cl)nn3c2-c2ccnc(NC3CCCCC3)c2)c1 | 191 to 192
31 | CC(C)c1ccc2oc(=O)c(NC(=O)Nc3ccc(F)cc3F)c(-c3ccc(F)cc3)c2c1 | 216 to 217
32 | Cc1[nH]n(C2CCCC2C)c2nc(-c3ccncc3)nc(=O)c1-2 (configuration not stated) | 290 to 291
33 | CCCCCC(=O)c1c(CSc2nccn2C)nc2cc(OC)c(OC)cc2c1-c1ccc(OC)c(OC)c1 | 128 to 129
34 | CCOC(=O)CC1C(=O)N(CCc2c[nH]c3ccccc23)CCN1C(=O)c1ccccc1 (configuration not stated) | 144
35 | CCOC(=O)Nc1c(C)c(C)c2c(c1C)CC(C)(C)O2 | 102 to 104
36 | COCc1c(C(C)C)nc(-c2ccc(F)cc2)c(C=O)c1C(C)C | 77
37 | CCOC(=O)C(=O)OCc1ccc(OC)cc1 | 44 to 45
38 | O=C(O)c1cn2c(-c3ccccc3)ncc2c2ccccc12 | 187 to 190
39 | CC(Cl)(Cl)C(NC(=O)c1ccc(Br)cc1)NC(=NC#N)Nc1ccc(Cl)nc1 (configuration not stated) | 215 to 216
40 | O=[N+]([O-])c1cc(CO)c(CO)cc1Oc1ccc(F)cc1F | 124
41 | COc1cccc([C@H]2O[C@H](CC(=O)Nc3cc4c(c(C(=O)O)c3)CCCC4)C(=O)N(CC(C)(C)CO)c3ccc(Cl)cc32)c1OC | 178 to 179
42 | Cc1c(C)c(C=O)c2ncccc2c1C | 162
43 | Cc1ccc(C2CCN(C(=O)Nc3ccc4nc(CN5CCCC5)ccc4c3)CC2)cc1 | 214 to 216
44 | CCNC(=S)NNC(=O)c1ccc(N)cc1 | 113 to 115
45 | COC(=O)C1=C(Nc2ccccc2N)CSC1 | 101
46 | COc1nc2ccc(Cl)cc2c(-c2ccccc2Cl)c1C(=O)O | 188 to 190
47 | COCCOCCn1cc(C(=O)NCc2ccc(Cl)cc2)c(=O)c2cc(CSC)ccc21 | 154 to 155
48 | CC(C)(C)OC(=O)Nc1ccn2nc(N3CCCC3)nc2c1 | 216 to 219
49 | O=S1(=O)c2sccc2C=C(CO)N1CCN1CCOCC1 | 119 to 121
50 | CCn1cc(C(=O)NCCc2ccncc2)c(=O)c2cnc(N3CCCC3)nc21 | 175 to 177

Row | Compound | melting point [°C]
51 | CC(C)=CCn1c(C)cnc1[N+](=O)[O-] | 78 to 79
52 | CCCCNC(=O)[C@@H](C[C@H](O)[C@H](CC1CCCCC1)NC(=O)OC(C)(C)C)C(C)(C)O | 91 to 93
53 | COCc1ccc(-c2cn(-c3cc(C(=O)OC)c([N+](=O)[O-])cc3C(F)(F)F)cn2)cc1 | 135 to 137
54 | NC(=O)CN1C(=O)[C@@H](NC(=O)c2ccc(Cl)cc2)[C@H](c2ccccc2)Sc2ccccc21 (relative stereo) | 272 to 275
55 | COC(=O)C1=C(C(=O)OC)c2c(c3ccccc3n2C)CC1 | 113
56 | NC(=O)N1CCN2c3ccccc3Cn3cccc3C2C1 (configuration not stated) | 175 to 177
57 | Cc1noc(NS(=O)(=O)c2ccccc2-c2ccc(C(F)(F)C(C)C)cc2)c1C | 52 to 58
58 | CCOC(=O)C(Cc1ccc(NC(C)=O)c([N+](=O)[O-])c1)(NC(C)=O)C(=O)OCC | 172
59 | CC/C(=C\CCC(O)(CC)CC)c1ccc(COc2ccc(CO)c(CO)c2)s1 | 82
60 | C[Si](C)(C)C1(COC(=O)Nc2ccccc2)c2ccccc2-c2ccccc21 | 94 to 96
61 | N[C@@H](Cc1c[nH]cn1)C(=O)N(N)C(=O)C(CC(=O)N1CCOCC1)Cc1cccc2ccccc12 (some centres not stated) | 115 to 119
62 | CCn1c(=S)sc2c(=N)n(NC(N)=O)cnc21 | 212
63 | CN(C)c1ccc(-c2cccc3c2C2(COc4cc5c(cc42)OCO5)C(=O)N3Cc2ccc(C(F)(F)F)o2)cn1 (configuration not stated) | 174 to 176
64 | CC(C)(C)[Si](C)(C)Oc1ccc2cc(Br)ccc2c1 | 62 to 63
65 | CC(C)c1nc(C(N)(C(F)(F)F)C(F)(F)F)[nH]c1-c1ccc(S(C)(=O)=O)cc1 | 155 to 157
66 | Oc1ccc2ccc(OCCN3CCC(Cc4ccccc4)CC3)cc2c1 | 159 to 160
67 | O=C(c1ccc(O)cc1)N1CC=CCC1 | 202 to 206
68 | CC(C)COP(C)(=O)c1ccccc1S(N)(=O)=O (configuration not stated) | 50 to 52
69 | CCCC(=O)c1ccc(O)c(OC)c1 | 40 to 41
70 | COC(=O)CC1CC(c2ccc(C#N)nc2)=NO1 (configuration not stated) | 115 to 116
71 | CC(=O)c1ccc(Nc2cccc(Br)c2)c([N+](=O)[O-])c1 | 142 to 144
72 | COC(=O)CCc1conc1-c1ccc(Cl)cc1 | 56 to 57
73 | Cc1n[nH]c(=O)c(-c2c(F)cc(F)cc2F)c1-c1cccs1 | 249 to 251
74 | COc1cc(O)ccc1CCCc1ccc(O)c(CC=C(C)C)c1 | 85 to 86
75 | CC(=O)N1CCc2sc(C(=O)CCCN3CCC(c4noc5cc(F)ccc45)CC3)cc2C1 | 235

Row | Compound | melting point [°C]
76 | CCCSc1nc(Sc2ccc(OC)cc2)c(C(=O)O)n1Cc1cc2c(cc1Cl)OCO2 | 164
77 | O=C1NC(c2ccccc2)(c2ccccc2)C(=O)N1CCl | 161 to 162
78 | Cc1c(C)c2c(c(Cl)c1C=O)CC(C)(C)C2 | 108
79 | CC(C)(C)c1ccc(Cn2ccc3cc(Br)ccc32)cc1 | 108 to 109
80 | O=C(c1cc2ccccc2s1)N1CCc2[nH]c3c(cnc4cc(Cl)ccc43)c2C1 | > 250
81 | C#CCn1cc(CO)sc1=O | 97 to 98
82 | Cc1c(-c2ccc(NC(=O)OCC(C)C)cc2)nc2n1CCc1ccccc1C2OC1CCN(C)CC1 (configuration not stated) | 196
83 | Nc1ncnc2c1c(Cl)cn2COCCO | 149 to 150
84 | OCCN(CCc1ccccc1)C(=S)NCCCc1ccncc1 | 106 to 107
85 | CN(C)CCCOc1ccc2sc(C(=O)Nc3ccccc3N)cc2c1 | 164 to 167
86 | OC(c1ccccn1)c1cc(F)ccc1F (configuration not stated) | 65 to 66
87 | Cn1nc(C(C)(C)c2ccc(Cl)cc2)nc1-c1c(F)cccc1Cl | 97 to 100
88 | CCCCCCCCS(=O)(=O)Nc1ccccc1Oc1ccccc1C(=O)O | 100 to 102
89 | O=C(O)c1ccc(OCCNC(=O)C2Cc3ccccc3N2S(=O)(=O)c2ccc(-c3cccc(C(F)(F)F)c3)cc2)c(F)c1 (configuration not stated) | 96 to 104
90 | N=C(N)N(CCCC(C=O)NC(=O)C1CCCN1C(=O)COc1ccccc1)C(=O)OCc1ccccc1 (configuration not stated) | 65 to 78
91 | Nc1ccc(OC[C@@H]2CCCN2c2ccc3ccccc3n2)cc1 | 138 to 140
92 | CCCCCCNC(=O)OC1CCN(C(=O)Oc2ccc(Oc3ccccc3)cc2)CC1 | 77 to 82
93 | CCCC(N(NC(=O)OC(C)(C)C)C(=O)c1cc(C)cc(C)c1)C(C)(C)C (configuration not stated) | 116 to 118
94 | CCOC(=O)CCn1c(=O)n2cc(C)cc2c2ccccc21 | 74 to 76
95 | O=C(Nc1ccc(CN2C(=O)CNC2=O)cc1)c1cc(=O)c2ccccc2o1 | 258 to 261
96 | N#CCc1ccc(Cl)cc1C(=O)O | 120
97 | O=C(Nc1ccccc1O)c1ccc(O)c(Cl)c1 | 172 to 174
